{"source": "patent US8236811B2", "about": "“Therapeutic use for treating of leukemia” (Sanofi, priority 2006, dated 2012)", "assay_type_in_all_cases": "in vivo, Scid CB-17 mice", "key": {"[1]": {"tested_on": "KG1 tumours (AML)", "assay": "Antitumor activity in mice bearing KG1 tumours (AML)", "description": "(§1) Scid CB-17 mice (supplied by Charles River, Lyon, France) are used. At the time of the randomization, the animals have an average weight of 20-22 g and are aged from 6 to 9 weeks.\n(§2) The day before the first administration of a compound, the animals bearing tumors are classified into several groups. Only animals bearing two tumors which are palpable or of determined weight are selected and distributed at random into the treated groups and control groups. Each group is made up of 5 to 10 mice. At the start of the study, each cage is labeled with a card indicating the day of implantation of the tumour, the type of tumour, the compound tested and the mode of administration.\n(§3) The implantation of the tumors is effected as follows: after removal of the tumour from the donor mouse, the tumour is cut up into fragments 2 to 3 mm in diameter, placed in a saline phosphate buffer, and implanted bilaterally with an adapted trocar.\n(§4) The volume of the tumors and its conversion into weight is estimated according to the formula: weight: (in mg)=(a×b^2)/2, where a and b are respectively the length and the width of the tumour (mm). The tumors are measured twice a week with calipers. In the following tables, P indicates the weight of the tumors at the start of treatment.\nTwo parameters for estimation of antitumor activity are used: log10 of the cells killed (Log cell kill) and T/C. • Calculation of log10 of the cells killed=(T−C)/3.32×Td, where (T−C) is the delay in tumour growth and Td the volume (and weight) doubling time of the tumour (expressed in days). T is the median time in days for reaching a defined value (e.g. 1000 mg) in the treated group and C is the median time in days for reaching this same value in the control group. A value of log10 of the cells killed>0.7 is indicative of antitumor activity of the molecule. A value of log10 of the cells killed >2.8 is indicative of a very high antitumor activity of the molecule (J Liang et al, Invest New Drugs 2005; 23(3):213-24). • Calculation of T/C: the treated groups and the control groups are evaluated when the tumors of the control group reach approximately 1000 mg (median value of the group). The median weight of the tumors of each treated group is then determined. The T/C value ((weight of the tumors of the treated groups/weight of the tumors of the control groups)×100) in percent is an indication of the antitumor efficacy: a T/C value less than or equal to 42% is indicative of anti-tumour activity according to the American National Cancer Institute (NCI). A T/C value less than 10% is representative of very high anti-tumour activity. • The number of mice no longer displaying tumors a long time after the last administration (TFS=tumour-free survival), and considered as cured, can also constitute a parameter of activity of the molecule. • Evaluation of the toxicity of the compound tested: a weight loss greater than or equal to 20% or the appearance of any lethality in connection with the compound is considered as an excessively toxic treatment. As examples, the results obtained with the compound N-[2-(2,1,3-benzothiadiazol-5-ylamino)-6-(2,6-dichlorophenyl)pyrido[2,3-d]pyrimidin-7-yl]-N′-(1,1-dimethyl-ethyl)-urea are given in the following Tables 1 to 7.\n(§5) IV is understood to mean administration by the intravenous route.\nThe cell line KG-1 (AML) is described by Koeffler et al., Science 200: 1153-1154 (1978), and supplied by DSMZ ACC No. 14."}, "[2]": {"tested_on": "CMLT1 tumours (CML)", "assay": "Antitumor activity in mice bearing CMLT1 tumours (CML)", "conditions": "20 mg/kg/injection IV/IP, days 3-7/10-14, 17-21, total dose 300 mg/kg", "description": "as §1, §2, §3, §4\n(§6) Two parameters for estimation of antitumor activity are used: log10 of the cells killed (Log cell kill) and T/C. • Calculation of log10 of the cells killed=(T−C)/3.32×Td, where (T−C) is the delay in tumour growth and Td the volume (and weight) doubling time of the tumour (expressed in days). […] A value of log10 of the cells killed >2.8 is indicative of a very high antitumor activity of the molecule (J Liang et al, Invest New Drugs 2005; 23(3):213-24). • Calculation of T/C: the treated groups and the control groups are evaluated when the tumors of the control group reach approximately 1000 mg (median value of the group). The median weight of the tumors of each treated group is then determined. […]"}, "[3]": {"tested_on": "Kasumi1 tumours (AML)", "assay": "Antitumor activity in mice bearing Kasumi1 tumours (AML)", "conditions": "days 25-31, 33, 34, P 178 mg", "description": "as §1, §2, §3, §4\n(§7) T is the median time in days for reaching a defined value (e.g. 1000 mg) in the treated group and C is the median time in days for reaching this same value in the control group. A value of log10 of the cells killed>0.7 is indicative of antitumor activity of the molecule. […] The median weight of the tumors of each treated group is then determined.\nas §5"}, "[4]": {"tested_on": "EOL-1 tumours (AML)", "assay": "Antitumor activity in mice bearing EOL-1 tumours (AML)", "conditions": "days 8-10, 12-17, 19, total dose 300 mg/kg, P 133-146 mg", "description": "as §1\n(§8) The day before the first administration of a compound, the animals bearing tumors are classified into several groups. Only animals bearing two tumors which are palpable or of determined weight are selected and distributed at random into the treated groups and control groups. Each group is made up of 5 to 10 mice. At the start of the study, each cage is labeled with a card indicating the day of implantation of the tumour, the type of tumour, the compound tested and the mode of administration. […]\n(§9) The volume of the tumors and its conversion into weight is estimated according to the formula: weight: (in mg)=(a×b^2)/2, where a and b are respectively the length and the width of the tumour (mm). The tumors are measured twice a week with calipers. […]\nT is the median time in days for reaching a defined value (e.g. 1000 mg) in the treated group and C is the median time in days for reaching this same value in the control group. […] The median weight of the tumors of each treated group is then determined."}, "[5]": {"tested_on": "K562 tumours (CML)", "assay": "Antitumor activity in mice bearing K562 tumours (CML)", "conditions": "25 mg/kg/injection IV/IP, days 4-11/12-25, total dose 550 mg/kg", "description": "as §1, §2, §3, §4, §6"}, "[6]": {"tested_on": "CTV1 tumours (AML)", "assay": "Antitumor activity in mice bearing CTV1 tumours (AML)", "conditions": "25 mg/kg/injection IV/IP, days 17-23, 25-26/28-32, total dose 350 mg/kg, P 100 mg", "description": "as §1, §8, §9\nTwo parameters for estimation of antitumor activity are used: log10 of the cells killed (Log cell kill) and T/C. • Calculation of log10 of the cells killed=(T−C)/3.32×Td, where (T−C) is the delay in tumour growth and Td the volume (and weight) doubling time of the tumour (expressed in days). […] The median weight of the tumors of each treated group is then determined. […]"}, "[7]": {"tested_on": "KG1a tumors (AML)", "assay": "Antitumor activity in mice bearing KG1a tumors (AML)", "description": "as §1, §2, §3, §4, §7\nIV/IP is understood to mean administration by the intravenous route followed by an intraperitoneal route; here the transition is effected between day 15 and day 16. IV/oral is understood to mean administration by the intravenous route followed by an oral route; here the transition is effected between day 30 and day 31. […] On day 31, the compound is administered by the oral route until day 44."}, "[8]": {"conditions": "17 mg/kg/injection IV, days 19-38, total dose 255 mg/kg, P 127-130 mg"}}, "data": [{"smiles": "CC(C)(C)NC(=O)Nc1nc2nc(Nc3ccc4nsnc4c3)ncc2cc1-c1c(Cl)cccc1Cl", "note": "[N-[2-(2,1,3-benzothiadiazol-5-ylamino)-6-(2,6-dichlorophenyl)pyrido[2,3-d]pyrimidin-7-yl]-N′-(1,1-dimethylethyl)-urea]", "values": [{"measurement": "T/C at 28 days", "setting": "[1]; 17 mg/kg/injection IV, days 19-28, 30, 32, 34, 36, 38, total dose 255 mg/kg, P 127-130 mg, DMSO 5% Tween80 10% H2O 85%", "result": 0, "unit": "%"}, {"measurement": "Log10 cells killed", "setting": "[1]; [8]", "result": ">6"}, {"measurement": "TFS (tumour-free survival)", "setting": "[1]; [8]", "result": "(100%)"}, {"measurement": "T/C at 28 days", "setting": "[1]; 40 x 2 mg/kg (2 administrations per treatment day) oral, days 18-24, 26, 28, 30, 32, 34, 36, 38, 40, total dose 1200 mg/kg, P 130-132 mg, Labrasol 21% Solutol 5% HCl 0.001N 74%", "result": 0, "unit": "%"}, {"measurement": "Log10 cells killed", "setting": "[1]; 40 x 2 mg/kg oral, days 18-40, total dose 1200 mg/kg, P 130-132 mg", "result": 4.3}, {"measurement": "Log10 cells killed", "setting": "[2]; P palpable ~30 mg", "result": 1.5}, {"measurement": "T/C at 22 days", "setting": "[2]; P palpable ~30 mg, DMSO 5% Tween80 10% H2O 85%", "result": 1, "unit": "%"}, {"measurement": "TFS (tumour-free survival)", "setting": "[2]; on day 42", "result": "(50%"}, {"measurement": "T/C at 28 days", "setting": "[3]; 15 x 2 mg/kg (two administrations per treatment day) IV, total dose 255 mg/kg, PEG400 22% Solutol 5% G5 73%", "result": 20, "unit": "%"}, {"measurement": "Log10 cells killed", "setting": "[3]; 15 x 2 mg/kg IV, total dose 255 mg/kg", "result": 3}, {"measurement": "T/C at 28 days", "setting": "[3]; 40 x 2 mg/kg (two administrations per treatment day) oral, total dose 680 mg/kg, Labrasol 21% Solutol 5% HCl 0.001N 74%", "result": 17.5, "unit": "%"}, {"measurement": "Log10 cells killed", "setting": "[3]; 40 x 2 mg/kg oral, total dose 680 mg/kg", "result": 2.4}, {"measurement": "T/C at 14 days", "setting": "[4]; 15 x 2 mg/kg (2 administrations per treatment day) IP, PEG400 22% Solutol 5% G5 73%", "result": 5.7, "unit": "%"}, {"measurement": "Log10 cells killed", "setting": "[4]; 15 x 2 mg/kg IP", "result": 3.1}, {"measurement": "Log10 cells killed", "setting": "[5]; P 63-80 mg", "result": 4.2}, {"measurement": "T/C at 28 days", "setting": "[5]; P 63-80 mg, DMSO 5% Tween80 10% H2O 85%", "result": 0, "unit": "%"}, {"measurement": "TFS (tumour-free survival)", "setting": "[5]; on day 130", "result": "(43%"}, {"measurement": "Log10 cells killed", "setting": "[6]", "result": 1.7}, {"measurement": "T/C at 25 days", "setting": "[6]; PEG400 22% Solutol 5% G5 73%", "result": 1.6, "unit": "%"}, {"measurement": "T/C at 22 days", "setting": "[7]; 17 mg/kg/injection IV/IP, days 5-13, 15/16, 18-20, 22, 24-26, 29, 31, total dose 340 mg/kg, P 91-98 mg, DMSO 5% Tween80 10% H2O 85%", "result": 0, "unit": "%"}, {"measurement": "Log10 cells killed", "setting": "[7]; 17 mg/kg/injection IV/IP, days 5-31, total dose 340 mg/kg, P 91-98 mg, DMSO 5% Tween80 10% H2O 85%", "result": ">>6"}, {"measurement": "Log10 cells killed", "setting": "[7]; 25 mg/kg IV days 22-30 then 40 x 2 mg/kg oral days 31-44, total dose 225/1120 mg/kg, P 1000 mg, DMSO 5% Tween80 10% H2O 85%", "result": ">>6"}, {"measurement": "Log10 cells killed", "setting": "[7]; 40 x 2 mg/kg (2 administrations per treatment day) oral, days 15-44, total dose 2400 mg/kg, P 147 mg", "result": 3.0}, {"measurement": "T/C at 22 days", "setting": "[7]; 40 x 2 mg/kg (2 administrations per treatment day) oral, days 15-44, total dose 2400 mg/kg, P 147 mg, DMSO 5% Tween80 10% H2O 85%", "result": 14.9, "unit": "%"}, {"measurement": "tumour weight at the end of second treatment period (tumors no longer measurable)", "setting": "[7]; after IV days 22-30 (25 mg/kg) then oral route day 31 until day 44, P 1000 mg", "result": "< 63", "unit": "mg"}, {"measurement": "TFS (tumour-free survival)", "setting": "[7]; on day 120, 17 mg/kg/injection IV/IP, days 5-31, total dose 340 mg/kg, P 91-98 mg", "result": 80, "unit": "% on"}, {"measurement": "reduction in the tumour weight", "setting": "[7]; tumors at very advanced stage (1000 mg), IV route days 22 to 30 at 25 mg/kg", "result": 80, "unit": "%"}]}]}
